Measured values as given in ChEMBL document CHEMBL3832052.

Assay: clinical
Conditions: human, in vivo, po

Cc1cc(NS(=O)(=O)c2ccc(N)cc2)no1 [SULFAMETHOXAZOLE]
Tmax: 1 to 4 h
